Patent publication US20200121884A1, “BIOACTIVATION METHOD FOR ENHANCING NEURAL ACTIVITY AND BLOOD C[…] OF LIVING BODY” (Aqua Bank CO.,LTD., priority 2017, published 2020)

Legend:
[1] = tested on: healthy women in their 20's to 30's; conditions: 17 subjects, before vs after suctioning, Table 1 and FIG. 1
Method: (§1) In the verification test using this method, hydrogen mainly produced by the hydrogen generating device (an electrolytic hydrogen gas suction tool 100 which will be described later) is orally suctioned. More specifically, hydrogen generated by the hydrogen generatingor device 100 is suctioned by spontaneous breathing for approximately 10 minutes. The amount of hydrogen generated per minute is 8 cc per minute by electrolysis (4 cc of oxygen is also generated at the same time) and thus, 12 cc per minute of a gas mixture of oxygen/hydrogen is generated. This gas mixture is suctioned by spontaneous breathing. Normally, since an adult suctions approximately 5 litters of air per minute under spontaneous breathing, assuming that all the generated gas mixture is suctioned, the gas mixture at 0.24% at the maximum (hydrogen 0.18%, oxygen 0.06%) is contained in an expiratory air.
The subjects were 20 selected subjects, grouped into two groups, considering the ages and test time slots (morning and afternoon), and measurement was conducted for 10 subjects a day. […]

[2] = tested on: healthy women in their 20's to 30's; conditions: 17 subjects, before vs after suctioning, Table 2 and FIG. 2
Method: as §1, with “Normally, since an adult suctions approximately 5 litters of air per minute under spontaneous breathing, assuming that all the generated gas mixture is suctioned, the gas mixture at 0.24% at the maximum (hydrogen 0.18%, oxygen 0.06%) is contained in an expiratory air.” left out
By paying attention to a physiological reaction that a skin temperature of a distal end section (the forehead center part and a first knuckle-joint cushion side part of the index finger are measured this time) is changed in accordance with predominance of the sympathetic nervous activity, the change in the skin temperature is measured by a temperature sensor over time before and after drinking of the hydrogen solution. The temperature sensor body has an approximate size of a thickness of 1 mm and a diameter of 3 mm, and the change in the skin temperature is measured by a recorder in a wired manner from the sensor.

[3] = tested on: healthy women in their 20's to 30's; conditions: 17 subjects, evaluation in score
Method: as §1, with “air. […]” for “air.”
(§2) For an action of the central nervous activity by hydrogen, a brain stress test utilized for the purpose of evaluating an activity degree and a stress degree of the brain is conducted, and the brain activity degree (degree of fatigue) is measured by a flicker device. Moreover, influences of a sight function, a skin sensibility function, a gravity balance function and the like are measured by a brain executive function meter. […]

[4] = tested on: healthy women in their 20's to 30's; conditions: 17 subjects, Table 4 and FIG. 5
Method: as §1, with “Normally, since an adult suctions approximately 5 litters of air per minute under spontaneous breathing, assuming that all the generated gas mixture is suctioned, the gas mixture at 0.24% at the maximum (hydrogen 0.18%, oxygen 0.06%) is contained in an expiratory air.” left out
as §2
Actions to the brain executive functions (right-and-left cognitive function, sight function, short-time memory, skin sensibility, gravity balance and the like are comprehensively analyzed) are analyzed (measurement instrument: Brain executive function meter by Anima).

[5] = tested on: healthy women in their 20's to 30's; conditions: 17 subjects, subjective five-grade evaluation, FIG. 6
Method: as §1
The subjects were 20 selected subjects, grouped into two groups, considering the ages and test time slots (morning and afternoon), and measurement was conducted for 10 subjects a day.
The testing method is as follows: • (1) In the main test, each subject should suction hydrogen. • (2) Tests/evaluations which will be described later shall be conducted for each subject while each subject is suctioning hydrogen, and by comparing/examining each evaluation before and after the suctioning, physiological effects by hydrogen is verified. • (3) For the subject who is sitting on a chair for measurement with his/her eyes open, a test manager or a test cooperator prepares a hydrogen generating tool (not generating hydrogen) which is a control and assigns it to the subject. The subject shall put his/her mouth to a nozzle 5 of an electrolytic hydrogen gas suction tool 100 which is this hydrogen generating device (see FIGS. 7 to 10) or a tube portion connected to that and normally breath for approximately 10 minutes. After that, each measurement which will be described later is conducted at any time. After that, the subject puts his/her mouth to the nozzle 5 of the electrolytic hydrogen gas suction tool 100 which generates hydrogen or the tube portion connected to that as a subject sample and suctions hydrogen for 10 minutes similarly. After that, each measurement is made. If abnormality is found in the subject while the subject is suctioning hydrogen, the test manager or the test cooperator shall immediately stop the suctioning. When the suctioning of hydrogen is stopped, the practitioner shall record the fact of the stop and suctioning time in a clinical report. • (4) The test manager shall check if a harmful phenomenon has occurred in the subject during the test or not.
For an action of the central nervous activity by hydrogen, a brain stress test utilized for the purpose of evaluating an activity degree and a stress degree of the brain is conducted, and the brain activity degree (degree of fatigue) is measured by a flicker device. Moreover, influences of a sight function, a skin sensibility function, a gravity balance function and the like are measured by a brain executive function meter. For a change in emotional feelings, an ability of concentration, sleepiness and the like are examined by interview by using a multilateral emotional state scale. The respective measurements will be described in brief below.

With `[HH]` [hydrogen] the “pupil contraction rate (CR value), change by hydrogen suctioning” value [1] was “significantly increased”, the “peripheral skin temperature, change by hydrogen suctioning” value [2] was “significantly raised” and the “brain stress, change by hydrogen suctioning” value ([3]; Table 3 and FIG. 3) was “significantly decreased”. For the same molecule, the “brain rotation degree score, change by hydrogen suctioning” value ([3]; Table 3 and FIG. 4) was “significantly raised”, the “right-and-left cognitive function, change by hydrogen suctioning” value [4] was “remarkable improvement” and the “short-term memory, change by hydrogen suctioning” value [4] was “remarkable improvement”. The “fatigue feeling, change by hydrogen suctioning” value [5] was “decreased”, the “feeling of concentration, change by hydrogen suctioning” value [5] was “significantly raised” and the “feeling of exhilarating, change by hydrogen suctioning” value [5] was “significantly raised”. The “feeling of refreshing, change by hydrogen suctioning” value [5] was “significantly raised” and the “spontaneous stress, change by hydrogen suctioning” value [5] was “decreased”.
